# Data: article PMC8536600 (Cancer Chemotherapy and Pharmacology, 2021)
# Like-named read-outs stand apart in the source and are kept apart here.
# How the values were obtained:
# CYP3A4 = conditions: cited from earlier work
# [1] = Exploratory population pharmacokinetic (popPK) analysis in GvHD patients; assay type: in vivo, human; conditions: for RUV b (residual unexplained variability, proportional error) / ωCL/F (inter-individual variability on CL/F) / ωV (inter-individual variability on Vc/F): as standard deviation of normal distribution
# Procedure: An exploratory popPK analysis was conducted to identify relevant covariates influencing drug exposure, to predict the influence of strong CYP3A4 or CYP2C9 inhibitors or PPI and to generate population estimates for apparent oral clearance (CL/F) and apparent central volume of distribution (Vc/F) as classical statistical analysis was not suitable due to the unbalanced number of samples per patient. The analysis was conducted on the individual raw data (as opposed to the descriptive statistics) using Monolix 2020R1 (Antony, France: Lixoft SAS, 2020) and was based on a previously published popPK model by Chen et al. investigating pharmacokinetics in patients with primary and secondary myelofibrosis (MF).
# Oral pharmacokinetics were described by a two-compartment model using first order absorption with lag time and linear elimination from the first compartment only. The population mean values for CL/F and Vc/F were re-estimated using the SAEM algorithm implemented in Monolix. The remaining parameters, except for the covariate model, were fixed to the original values. As in the original model, all pharmacokinetic parameters were assumed to be log-normally distributed. Dichotomous categorical covariates, were implemented as follows:1 logCL/Ftypical=logCL/Fpop+β^COV with COV being 0 or 1 encoding for the presence or absence of covariate effect.
# Continuous covariates were scaled to the population mean values using the following exponential relationship:2 logCL/Ftypical=logCL/Fpop+β∙COV with COV being the value of individual covariate, e.g., scaled eGFR = eGFR/70.2.
# Inter-individual variability (η) was implemented for CL/F and Vc/F according to: 3 logCL/Find=logCL/Ftypical+ηind,CLFwithηCL/F∼N0,ωCL/F2logVc/Find=logVc/Ftypical+ηind,Vc/FwithηVc/F∼N0,ωVc/F2
# Residual unexplained variability (RUV) was modeled using a proportional error model represented by the parameter b and the following equation:4 Concobs=Concpred∙1+ϵwithϵ∼N(0,b^2)
# A stepwise approach was used to develop the covariate model. Covariate effects were assessed using the Wald test and by comparing objective function values (OFV, which is the −2-log-likelihood) and derived descriptors such as Bayesian Information Criteria (BIC), corrected Bayesian Information Criteria (cBIC), and Akaike Information Criteria (AIC). The criterion for forward inclusion was an improvement of the OFV (p ≤ 0.1). In the backward elimination, a limit for the p value of < 0.05 was applied. The following covariates were tested: the presence of strong or moderate CYP3A4 or CYP2C9 inhibitors on CL/F, the presence of PPI on F (as relative bioavailability), aspartate aminotransferase (AST) on CL/F, total body weight on Vc/F, eGFR on CL/F, sex on CL/F, and smoking habit on CL/F.
# [2] = Clinical and laboratory adverse events (CTCAE v5.0) in relation to Ruxolitinib trough serum concentration; assay type: in vivo, human; conditions: for Mean trough concentration in group: logistic regression on at least three AE
# Procedure: Adverse events (AE) were registered by questioning patients at each sampling time point. Patients were specifically asked for AE occurring in ≥ 1/100 patients according to the prescribing information. Clinical AE were graded according to the […] (CTCAE) Version 5.0 [26]. Further recorded patient data included age, sex, height, weight, ethnicity, smoking status, dosing regimen, and comedication. Relevant laboratory parameters were recorded in parallel to blood sampling (estimated glomerular filtration rate (eGFR), serum creatinine, serum albumin, total cholesterol, total bilirubin, hemoglobin, white blood cell count, absolute neutrophil count, platelet count, aspartate, and alanine aminotransferase).
# (§1) Data were collected and processed using Microsoft Excel 2016 Version 16.0 (Microsoft Corporation, Redmond, WA, USA). Statistical calculations and visualization of results were performed with R Studio Version 1.2.5042 (RStudio Incorporation, Boston, MA, USA) and running R version 4.0.5 (R Foundation for Statistical Computing, Vienna, Austria, 2020). […] To fully display the degree of variability, concentrations were also summarized across all patients, stratified by dosing scheme. Pairwise comparisons were performed using Wilcoxon rank-sum test. Wilcoxon-signed-rank test was used for […] samples. For comparisons between more than two groups the Kruskal–Wallis one-way analysis of variance combined with Dunn’s test post hoc was used. Spearman’s correlation was used for analysis of AE. Logistic regression followed by receiver operator characteristic (ROC) analysis was used to evaluate the risk for the occurrence of AE of any grade or type on a visit in relation to the corresponding trough concentration on that visit. Due to the explorative nature of the study, p values obtained from multiple comparisons were not corrected for multiple testing. A p value < 0.05 was considered statistically significant. A Spearman’s rho (ρ) correlation was defined as follows: 0 to 0.3 or 0 to −0.3, weak; 0.3 to 0.7 or −0.3 to −0.7, moderate and 0.7 to 1 or −0.7 to −1, strong.
# [3] = Steady state Ruxolitinib trough serum concentrations in GvHD patients in clinical routine (LC-MS/MS); assay type: in vivo, human
# Source text: Patients were enrolled in a noninterventional prospective clinical trial at the University Hospital of Würzburg between February 2019 and February 2021. The study was approved by the Ethics Commission of the University of Würzburg (ref 199/18-am). All performed procedures were in accordance with the Declaration of Helsinki. Written informed consent was obtained from all patients. […] After enrollment blood samples and patient data were collected regularly during routine outpatient visits for 1 year. Treatment was managed at the discretion of the treating physician.
# Serum samples were collected at each outpatient visit during routine blood withdrawal. Patients were asked to take Ruxolitinib after blood withdrawal. Date and time of last administration and blood withdrawal were recorded. Samples obtained at least 48 h after initiation or modification of therapy were considered steady state samples [27]. Samples obtained between eight and 30 h after last administration (depending on dosing scheme) were considered trough levels.
# In brief, after protein precipitation with acetonitrile separation was achieved on a Waters XBridge Phenyl 3.5 µm (2.1 × 50 mm) column using gradient elution (flow rate 400 μL/min). […] Lower level of quantification (LLOQ) of the method was 2 ng/mL. Concentrations < LLOQ were excluded from further statistical analysis but included as censored data (between 0 ng/mL and LLOQ) in the popPK analysis.
# as §1
# [4] = Observed concentrations versus concentrations simulated with Chen et al.'s popPK model for myelofibrosis patients; parameters: species or system human; conditions: simulated with Chen et al.'s MF model, lower than observed
# Source text: The model published by Chen et al. was also encoded in R using the mrgsolve package for R [30]. Applying patient covariates and dosing schemes, the model was used to predict every observed concentration of every patient included in our study based on individual patient covariates and dosing data.
# [5] = cited from earlier work
# [6] = parameters: method as in Chen et al., J Clin Pharmacol. 2013;53(7):721-30; conditions: fixed, ref Chen et al., J Clin Pharmacol. 2013;53(7):721-30, cited from earlier work
# [7] = daily dose 5-< 20 mg, 51 samples
# [8] = daily dose > 20-40 mg, 3 samples
# [9] = popPK analysis in patients with aGvHD
smiles,measurement,setting,value
CC[C@H]1OC(=O)[C@H](C)[C@@H](O[C@H]2C[C@@](C)(OC)[C@@H](O)[C@H](C)O2)[C@H](C)[C@@H](O[C@@H]2O[C@H](C)C[C@H](N(C)C)[C@H]2O)[C@](C)(O)C[C@@H](C)CN(C)[C@H](C)[C@@H](O)[C@]1(C)O [Azithromycin],CYP3A4 (inhibitor / inducer),CYP3A4,inhibitor
CN(C)C(=O)C(CCN1CCC(O)(c2ccc(Cl)cc2)CC1)(c1ccccc1)c1ccccc1 [Loperamide],CYP3A4 (inhibitor / inducer),CYP3A4,inhibitor
same,CYP3A4 Strength,CYP3A4,strong
C=C[C@H]1C[N@@]2CC[C@H]1C[C@H]2[C@H](O)c1ccnc2ccc(OC)cc12 [Quinine],CYP3A4 (inhibitor / inducer),CYP3A4,inducer / inhibitor
N#CC[C@H](C1CCCC1)n1cc(-c2ncnc3[nH]ccc23)cn1 [Ruxolitinib],"CL/F, population mean",[1]; base model,8.55 L/h
same,"Vc/F, population mean",[1]; base model,64.8 L
same,"RUV b (residual unexplained variability, proportional error)",[1]; base model,0.50
same,ωCL/F (inter-individual variability on CL/F),[1]; base model,0.52
same,ωV (inter-individual variability on Vc/F),[1]; base model,0.25
same,Reduction of CL/F due to coadministration of at least one strong CYP3A4 or CYP2C9 inhibitor,"[1]; compared to study patients not receiving relevant strong inhibitors, back transformation of β",15%
same,"Vc/F, population mean",[1]; covariate model,61.9 L
same,"βCL, STRONG_INH (covariate effect of strong CYP3A4 or CYP2C9 inhibitors on CL/F)",[1]; covariate model,-0.16
same,"CL/F, population mean (typical CL/F)",[1]; covariate model including strong CYP inhibitors as covariate,9.74 L/h
same,Share of inter-individual variability on CL/F explained by strong CYP3A4 or CYP2C9 inhibitors,[1]; covariate model vs base model,about 4%
same,"RUV b (residual unexplained variability, proportional error)",[1]; covariate model,0.50
same,ωCL/F (inter-individual variability on CL/F),[1]; covariate model,0.48
same,ωV (inter-individual variability on Vc/F),[1]; covariate model,0.29
same,Effect of simultaneous administration of PPI on Ruxolitinib exposure,[1]; covariate tested on relative bioavailability,did not affect Ruxolitinib exposure
same,Reduction of Ruxolitinib clearance in GvHD population,[1]; in comparison to the population of Chen et al. (patients with MF),approximately 50%
same,"Clinical AE reported at the time of blood sampling, total number","[2]; 29 GvHD patients, all grades",302
same,"Clinical AE of grade 1, number",[2]; CTCAE grade 1,250
same,"Clinical AE of grade 2, number",[2]; CTCAE grade 2,46
same,Share of all reported clinical AE of grade 3,[2]; CTCAE grade 3,2.0%
same,Clinical AE of grade 4 or 5,[2]; CTCAE grade 4 or 5,no AE of grade 4 or 5
same,Average clinical AE reported at each sampling time point,[2]; grade 1,0.95
same,Average clinical AE reported at each sampling time point,[2]; grade 2,0.18
same,Average clinical AE reported at each sampling time point,[2]; grade 3,0.02
same,Mean trough concentration in group,[2]; first of both groups as printed,35.9 ng/mL
same,Mean trough concentration in group,[2]; second of both groups as printed,62.8 ng/mL
same,Correlation between trough concentration and occurrence of grade 1 AE on the same visit,"[2]; vertigo and cephalgia, p < 0.05",significant correlation
same,"Effect of Ruxolitinib exposure on thrombocyte count, absolute neutrophil count and bilirubin",[2]; visual analysis of the data,did not reveal obvious effects
same,All trough serum concentrations at 5 mg daily,"[3]; 5 mg daily, 3 of 4 samples < LLOQ (2 ng/mL)",^aAll trough serum concentrations at 5 mg daily were ≤ 2.17 ng/mL (3 of 4 samples < LLOQ)
same,Range of individual mean trough serum concentrations,"[3]; 20 mg daily, n = 20 individuals",5.6 to 99.8 ng/mL
same,Median of individual mean trough serum concentrations,"[3]; 20 mg daily, patients not requiring AE-related dose reduction, n = 18",39.8 ng/mL
same,Median of individual mean trough serum concentrations,"[3]; 20 mg daily, patients who had dose reductions for AE, before reduction, n = 4",60.6 ng/mL
same,Median of individual mean trough serum concentrations,"[3]; 20 mg daily, steady state, n = 20 individuals",39.9 ng/mL
same,Range of individual mean trough serum concentrations,"[3]; 5-< 20 mg daily, n = 8 individuals",7.7 to 46.8 ng/mL
same,Median of individual mean trough serum concentrations,"[3]; 5-< 20 mg daily, steady state, n = 8 individuals",26.2 ng/mL
same,Median of individual mean trough serum concentrations,"[3]; > 20-40 mg daily, steady state, n = 2 individuals",15 ng/mL
same,"Steady state trough serum concentration of all samples across all individuals, Median","[3]; daily dose 20 mg, 120 samples",40.5 ng/mL
same,"Steady state trough serum concentration of all samples across all individuals, Range","[3]; daily dose 20 mg, 120 samples",2.7 to 229 ng/mL
same,"Steady state trough serum concentration of all samples across all individuals, Median",[3]; [7],17.5 ng/mL
same,"Steady state trough serum concentration of all samples across all individuals, Range",[3]; [7],2.2 to 155 ng/mL
same,"Steady state trough serum concentration of all samples across all individuals, Median",[3]; [8],25.1 ng/mL
same,"Steady state trough serum concentration of all samples across all individuals, Range",[3]; [8],4.3 to 28.5 ng/mL
same,"Steady state trough serum concentration of all samples across all individuals, Median","[3]; daily dose: All, 174 samples",31.4 ng/mL
same,"Steady state trough serum concentration of all samples across all individuals, Range","[3]; daily dose: All, 174 samples",2.2 to 229 ng/mL
same,Median of mean trough concentrations,"[3]; patients with AE-related dose reduction, after dose reduction, n = 4",28.4 ng/mL
same,Trough concentrations under dual CYP inhibition,"[3]; two patients receiving Posaconazole plus Atorvastatin or Amiodarone, mostly above this value",> 80 ng/mL
same,Median paired difference between observed and simulated serum concentrations,[4]; non-trough concentrations,64.9 ng/mL
same,Median paired difference between observed and simulated serum concentrations,[4]; trough concentrations,27.1 ng/mL
same,CL/F for a typical female,[5]; patients with MF,17.7 L/h
same,CL/F for a typical male,[5]; patients with MF,22.1 L/h
same,Lower oral clearance in comparison to MF patients,[5]; [9],66.7%
same,Slower rate of absorption in comparison to MF patients,[5]; [9],28%
same,"Q/F, population mean",[6]; base model,2.53 L/h
same,"TLag, population mean",[6]; base model,0.0545 h
same,"Vper/F, population mean",[6]; base model,11.2 L
same,"ka, population mean",[6]; base model,4.12 h⁻¹
same,"Q/F, population mean",[6]; covariate model,2.53 L/h
same,"TLag, population mean",[6]; covariate model,0.0545 h
same,"Vper/F, population mean",[6]; covariate model,11.2 L
same,"ka, population mean",[6]; covariate model,4.12 h⁻¹
